From a melting point compilation (Tetko et al.; mined from patent text by program, amines drawn as free bases though some values may be those of a salt) come the findings set out here.

The melting point is the temperature of the solid-liquid transition.

For the molecule `CN(C)C(=N[N+](=O)[O-])NCc1ccc(Cl)nc1`, the melting point was in the range of 160 to 162 °C. The result for `O=C(NCc1ccc2c(c1)-c1[nH]nc(-c3ccsc3)c1C2)c1cccnc1` reads 286 °C; that for `COc1cc2c(cc1F)CC(C)C2=O` (stereo unspecified), 76 to 78 °C; that for `Cc1ccc(C(=O)C(=NN)c2ccc(C)cc2)cc1`, 137 to 140 °C. In the case of `CC(O)(c1ccccc1)C1CCNCC1` (stereo unspecified) it was 172 to 175 °C; in that of `CCC(CC)Nc1cc(C)nc(Oc2c(C)cc(C)cc2C)c1NC(C)=O`, 154 to 156 °C; in that of `Clc1ccc(COc2ccc(-c3nc(COc4ccc(CCCn5ccnc5)cc4)co3)cc2)cc1`, 151 to 152 °C. The result for `CCCCNc1nc(C)cc(Cl)n1` reads 35 to 36 °C; that for `Cc1nc(N)c2nc(CNC(=O)C3CC3)n(CC(C)C)c2c1C`, 182 to 184 °C. Turning to `CS(=O)(=O)c1ccc(-n2nc(C(F)(F)F)nc2-c2ccc(Br)cc2)cn1`, the melting point was in the range of 141 to 143 °C. In the case of `CCCCCCCCCCCCCCNC(=O)Nc1sc(C(=O)O)c(C)c1C(=O)OC(C)(C)C` it was 176 to 178 °C. `Fc1ccc(-c2c[nH]c([C@@H](NC3CCC3)C3CCCCC3)n2)cc1` came in with a melting point of 170 to 172 °C. `O=C1NC(=O)C(C2CC=CCC2)O1` (stereo unspecified) came in with a melting point of 83 to 86 °C. `N#Cc1cc(O)c(O)c([N+](=O)[O-])c1`: the melting point lay in the range of 175 to 178 °C.

`O=C(O)C1=Cc2cc(Cl)c(Oc3cccnc3Cl)cc2OC1C(F)(F)F` (stereo unspecified) gave a melting point of 213 to 216 °C. With `CCc1n[nH]c(=O)n1C`, the melting point worked out at 86 °C. In the case of `COc1cc2ncnc(N3CCN(C(=O)NCCc4ccc(Cl)cc4)CC3)c2cc1OC`, the melting point fell in the range of 177 to 178 °C. `CCCN(CCC)CCc1ccc(OC)c2[nH]nc(O)c12` came in with a melting point of 198 to 201 °C.

`CC(C)S(=O)(=O)NC(=O)c1cccc([N+](=O)[O-])c1` had a melting point of 175 to 177 °C. `N#Cc1cccn(-c2cccnc2Cl)c1=O` showed a melting point of 145 °C. In the case of `COc1ccc(C2CCCN(C(=O)C(F)(F)F)C2)cc1NC(=O)NOCc1ccccc1` (stereo unspecified) it was 134 °C; in that of `COC(=O)Cn1c(C)cc(Cc2ccsc2)c(NC(=O)OCc2ccccc2)c1=O`, 127 to 128 °C.

In turn, `COC(=O)C=Cc1cc(C(=O)O)ccc1NC(=O)NC(=O)c1cc(F)c(F)cc1Cl` came in with a melting point of 99 °C. As for `CCOc1nn(-c2ccc(C(F)(F)F)cn2)cc1CCCOc1ccc(CCC(=O)O)c(OC(C)C)c1`, the melting point lay in the range of 104 to 105 °C. The result for `CCCCN(CCCC)c1ccc(C=CC2=CC(=CC=CC3=C(C#N)C(=C(C#N)C#N)OC3(C)C)CC(C)(C)C2)c(OC)c1` reads 228 to 230 °C; that for `O=Cc1cc(C2CC2)nn1Cc1ccc(C(F)(F)F)cc1Cl`, 94 to 96 °C. Molecule `CCCC(c1ccc(NC(C)=O)cc1)n1ccnc1` (stereo unspecified) registered a melting point of 186 °C. `O=C1CC2c3ccccc3CCN2C2CCCCC12` (stereo unspecified): the melting point fell in the range of 112 to 140 °C. The result for `Cc1cc(-n2ccc(OCCCO)cc2=O)sc1C(=O)NCc1cccc(F)c1` reads 135 to 137 °C; that for `C=CCSC(C#N)C1=NCCc2cc(OC)c(OC)cc21` (stereo unspecified), 146 to 147 °C; that for `OCC12COC(O1)C(O)C(O)C2O` (stereo unspecified), 166 to 168 °C. In the case of `CCOC(=O)c1cn2c3c(c(-c4ccccc4)ccc3c1=O)OCC2C` (stereo unspecified) it was 246 °C; in that of `CC(C)c1ccc(Nc2cccc3c2C(=O)N(C2CCC(=O)NC2=O)C3=O)cc1` (stereo unspecified), 138 to 140 °C. In the case of `N#CSc1nsnc1Cl` it was 63 to 65 °C.

With `CCOCCCNC(=O)C(C)(C(C)C)C(C)C`, the melting point turned out to be 30 °C. The result for `CCCSc1ncc(CC(NC(=O)CC(C)C)C(=O)O)n1Cc1ccccc1Cl` (stereo unspecified) reads 151 to 154 °C; that for `CSc1ccc(-c2cc(C(C)C)nc(N)n2)c2ccccc12`, 139 to 140 °C; that for `O=C(O)c1c(SCCO)c(SCCO)c(SCCO)c(SCCO)c1C(O)=NCCO`, 152 to 157 °C. `CS(=O)(=O)C(=C1CN(C(c2ccccc2)c2ccccc2)C1)c1cccc(N)c1` yielded a melting point of 197 °C. Molecule `CC(O)c1ccc(Cc2c(Cl)cc(N3N=CCNC3=O)cc2Cl)cc1` (stereo unspecified) had a melting point of 119 to 120 °C. In the case of `COc1ccc(SCc2ccccc2)cc1` it was 48 to 50 °C; in that of `CCOC(=O)c1cc2c(cn1)[nH]c1ccc(C(C)=O)cc12`, 290 to 305 °C; in that of `CCCN(CCC)C(=O)n1cnc(S(C)(=O)=O)n1`, 94 °C. The result for `Cc1cc(Cn2nnc(C(N)=O)c2N)cc(Cl)c1C(=O)c1ccc(Cl)cc1` reads 205 to 206 °C; that for `Cc1ccc(C2=NC(C)(C)[C@@H](c3ccncc3)C2)c(C)c1`, 50 to 51 °C; that for `N#Cc1ccccc1C(=O)c1ccccc1O`, 100 °C. As to `CCCC(CC(=O)NC(=O)OC(C)(C)C)Nc1ccc(C)cc1` (stereo unspecified), the melting point fell in the range of 63 to 64 °C.

Molecule `CCOC(=O)c1sc(C)c2c1CCCC2=O` gave a melting point of 76 to 77 °C. `NS(=O)(=O)N1CCN(c2ccc(Cl)cc2)CC1`: the melting point fell in the range of 218 to 220 °C. In the case of `Cc1ccc(Nc2nc(Cl)nc3ccccc23)cc1` it was 198 to 199 °C. In the case of `CN(C)c1ccc(-c2cc3nccnc3[nH]2)cc1CCC(=O)O`, the melting point was in the range of 269 to 271 °C. The result for `CCc1ccc(CSc2nc(C)cc(=O)[nH]2)nc1` reads 127 to 128 °C. In the case of `CCCCCCCCN(C=O)C1CC(C)(C)N(C=CC(=O)OCC)C(C)(C)C1` it was 58 to 60 °C; in that of `C=CCSc1nc(N)nc2c1ncn2C1C=CC(CO)C1` (stereo unspecified), 108 to 110 °C. `O=C(OCc1ccccc1)[C@H](CCCCO)N1C(=O)c2ccccc2C1=O`: the melting point fell in the range of 106 to 108 °C. In the case of `COc1cc2c(cc1-c1cccnc1)-c1c(-c3cccnc3)c3c(n1CC2)C(=O)N(C(C)(C)C)CCC3` it was 310 to 312 °C; in that of `COCOc1ccc2cc(C3CCN(C)CC3)[nH]c(=O)c2c1`, 200 to 202 °C; in that of `COc1ccc2c(c1Cl)S(=O)(=O)c1ccccc1N2C`, 244 °C. The result for `CCc1cc2c(cc1CC)C(=CC#N)OC2=O` reads 147 to 158 °C. The result for `FC(F)(F)c1cccc(CSc2nnc(-c3ccc4ncc(-c5ccccn5)n4c3)o2)c1` reads 181 to 182 °C; that for `Cc1oc(-c2ccccc2)nc1Cc1cc2cc(C=C3OC(=O)NC3=O)ccc2o1`, 185 to 200 °C; that for `CCCCCCCCCCCCOC(=O)NCCC(=O)O`, 88 to 90 °C. `CCOC(=O)C(=[N+]=[N-])C(=O)c1cc(OC)ccc1C1CCc2cc(OC)ccc21` (stereo unspecified) yielded a melting point of 97 to 99 °C. In the case of `O=C(c1ccn2c1CSC2c1cccnc1)c1c[nH]c2cc(-c3cccnc3)ccc12` (stereo unspecified) it was 270 to 271 °C; in that of `Cc1ccc(S(=O)(=O)Nc2cc(C(=O)O)c3c(c2)C(C(=O)O)CCN3)cc1` (stereo unspecified), 221 to 223 °C. As for `Cc1cc(SCc2sc(-c3ccc(Cl)cc3)nc2C)ccc1OCC(=O)O`, the melting point stood at 109 °C. The result for `CCc1cccc2c3c([nH]c12)C(CC)(CC(=O)OC)OCC3NC(N)=O` (stereo unspecified) reads 180 °C.

The molecule `O=[N+]([O-])c1ccc(/C=C/c2ccccn2)cc1` yielded a melting point of 136 to 139 °C. `CCOC(=O)COc1cc(OCc2ccccc2)ccc1C(=O)CC` registered a melting point of 81.5 to 82 °C. `CCc1nn(-c2cc(NC(=O)c3ccccc3)ccc2Br)c(=O)n1Cc1ccc(-c2ccccc2S(=O)(=O)NC(=O)OC(C)(C)C)cc1F` yielded a melting point of 154 to 156 °C.

`C[C@@H](n1ncn(-c2ccc(F)cc2)c1=O)[C@@]1(c2ccc(F)cc2F)CO1` registered a melting point of 100 to 101 °C. `CN(O)C(=O)NCCc1ccc2c(c1)OCCO2` returned a melting point of 94 to 95 °C. As to `CC(=O)OC1CCC2(C)C(CCC3C2CCC2(C)C(C(C)CCCI)CCC32)C1` (stereo unspecified), the melting point lay within 140 to 146 °C. In the case of `O=C1CCN(c2ncc(-c3ccc(Cl)cc3Cl)nn2)CC1` it was 120 to 122 °C. In the case of `C/C(=C\C(C)O)c1ccc(C2CCCCCC2)cc1` (stereo unspecified) it was 64 to 65 °C; in that of `COP(=O)(Nc1cc(C(C)C)ccc1N1CCOCC1)OC`, 97 to 98 °C. Molecule `CC(=O)C1=CCC2C3CCC4CC(OS(=O)(=O)c5ccc(C)cc5)CCC4(C)C3C(=O)CC12C` (stereo unspecified) showed a melting point of 147 to 151 °C.

`CCCCCCOc1cc(-c2cccc([N+](=O)[O-])c2)c(OCCCCCC)cc1-c1cccc([N+](=O)[O-])c1` yielded a melting point of 126 to 127 °C.

`CCOC(=O)Cc1c(C)nc(-c2ccccc2)nc1-c1cccc([N+](=O)[O-])c1` showed a melting point of 106 to 108 °C. `CSCCC1NCCNC1=O` (stereo unspecified) yielded a melting point of 68 to 70 °C. In the case of `Cc1ccc2c(c1)Sc1ccc(Cl)cc1CC2N1CCN(C)CC1` (stereo unspecified) it was 136 to 138 °C. Turning to `COC(=O)[C@@H]1C[C@H](OC(=O)c2ccsc2)C(=O)[C@H]2[C@@]1(C)CC[C@H]1C(=O)O[C@H](c3ccoc3)C[C@]21C`, the melting point lay within 211 to 212 °C.

Molecule `CC(CCCC(C)C1CCC2C3CC=C4CC(O)CCC4(C)C3CCC12C)CO[Si](C)(C)C(C)(C)C` (stereo unspecified) displayed a melting point of 93.5 °C.

In the case of `CC(=O)c1c[nH]c2cc(-c3ccncc3)ccc2c1=O`, the melting point was more than 300 °C. `Cc1oc(-c2ccccc2)nc1COc1ccc(CN(O)C(=O)NO)cc1` gave a melting point of 194 to 195 °C.

`COCCc1nc2c(N)nc3ccccc3c2n1CCOCCNC(=O)c1ccc(C(=O)NCCOCCn2c(CCOC)nc3c(N)nc4ccccc4c32)cc1` displayed a melting point of 229 to 233 °C. Consider `CCCO[Si](C)(CCN=C(O)C1(C)C(C)(C(=O)O)C(C)(C(=O)O)C1(C)C(O)=NCC[Si](C)(OCCC)OCCC)OCCC` (stereo unspecified), for which the melting point is 151 °C.

Molecule `[N-]=[N+]=NCCc1ccc(C(N)=O)s1` yielded a melting point of 104 to 105 °C. In the case of `OCc1c(Cl)nc2ccccc2c1-c1ccc(F)cc1` it was 159 to 160 °C; in that of `COC(=O)c1cccc(C(=O)Cc2cccc(Br)n2)c1`, 84 to 86 °C. On to `CC(=O)C12CCC(CC1)CC2(C)O` (stereo unspecified), for which the melting point was in the range of 43 to 44 °C.
